Drawing on patent publication US10072020B1, “Isatin spiro compounds with antibacterial activities and a method of preparing the same” (SHAANXI UNIVERSITY OF SCIENCE AND TECHNOLOGY, priority 2018, dated 2018), this text covers MIC for 17 compounds.

Assay in all cases: Antibacterial activity test, MIC by agar dilution
Type in all cases: cell-based
(In agar dilution the substance is mixed into plates at graded concentrations.)

One experiment has as its system Escherichia coli 10-1. To be noted: 101, MH agar plate two-fold dilution, 25° C. for 18-24 hours, read-out: Minimum Inhibitory Concentrations. As to the method: (§1) Antibacterial Activity Test of the Compounds of the Invention
(§2) The compounds were tested for their antibacterial activities using the following standard strains: Escherichia coli ATCC 25922, Escherichia coli 10-1, and Escherichia coli 10-2.
(§3) Preparation of Escherichia coli strains and bacterial liquid: the test strains (Escherichia coli ATCC 25922, Escherichia coli 10-1, and Escherichia coli 10-2) stock solutions were seeded in LB solid Media Petri dishes and placed in a 37° C. incubator overnight. The next day, single colonies were picked from LB solid petri dishes and inoculated into 6-10 mL LB liquid medium and cultured with shaking at 150 rpm for 3 hours at 37° C. 100 μL of the liquid was evenly coated on an LB solid plate, and inverted in an incubator at 37° C. overnight. Viable cells in the logarithmic growth phase were collected after 16-18 hours, and sterile water was added to form a bacteria suspension with the number of bacteria being 106 CFu·mL^−1.
(§4) Preparation of compound-containing agar plate: MH agar was heated to dissolve and placed in 45-50° C. water bath to balance, the compounds were added at different concentrations (160, 300, 600 μg·mL^−1). The mixtures were mixed evenly and poured onto sterilization plates, placed into a sealed plastic bag at 2-8° C.
(§5) Determination of the minimum inhibitory concentration: the minimum inhibitory concentrations (MICs) of the test compounds on the test bacteria were determined by diluting the agar plate two-fold. Multi-point inoculation instrument was used to inoculate bacteria to the MH agar medium that contains the compounds, forming a plaque with a diameter of 5 to 8 mm. After the plates were incubated at 25° C. for 18-24 hours, the growth state of the bacteria was observed, and the minimum compound concentration for inhibiting the growth of the bacteria was the MIC.

The subject of the next experiment is Escherichia coli 10-2. Particulars: 102, MH agar plate two-fold dilution, 25° C. for 18-24 hours, read-out: Minimum Inhibitory Concentrations. Here is the method: as §1, §2, §3, §4, §5
Experiment [1] has as its system Escherichia coli ATCC 25922. Particulars: ATCC25922, MH agar plate two-fold dilution, 25° C. for 18-24 hours, read-out: Minimum Inhibitory Concentrations. Here is the method: as §1, §2, §3, §4, §5

Each structure is given as a SMILES string. In brackets after ≈: the same amount, converted by molar mass.

As to `CN1C(=O)[C@@]2(OC=C2C=O)c2cc(Br)ccc21` [Compound 1, (R)-5-bromo-1-methyl-2-oxospiro[indoline-3,2′-oxete]-3′-carbaldehyde], the MIC with Escherichia coli 10-1 was 160 µg/mL (≈ 544 µM); in the experiment on Escherichia coli 10-2 it was 160 µg/mL (≈ 544 µM); in experiment [1] it was 300 µg/mL (≈ 1020 µM).
As for `CN1C(=O)[C@@]2(OC=C2C=O)c2cccc(Br)c21` [Compound 2, (R)-7-bromo-1-methyl-2-oxospiro[indoline-3,2′-oxete]-3′-carbaldehyde], the MIC in the experiment on Escherichia coli 10-1 is 160 µg/mL (≈ 544 µM); in the experiment on Escherichia coli 10-2, more than 160 µg/mL; in experiment [1] it was 300 µg/mL (≈ 1020 µM).
For `CN1C(=O)[C@@]2(OC=C2C=O)c2cc(Cl)ccc21` [Compound 3, (R)-5-chloro-1-methyl-2-oxospiro[indoline-3,2′-oxete]-3′-carbaldehyde], the results for the MIC (in the experiment on Escherichia coli 10-1; with Escherichia coli 10-2; in experiment [1]) were 160 µg/mL (≈ 641 µM), 300 µg/mL (≈ 1200 µM) and 300 µg/mL (≈ 1200 µM), respectively.
Take `CN1C(=O)[C@@]2(OC=C2C=O)c2cccc(Cl)c21` [Compound 4, (R)-7-chloro-1-methyl-2-oxospiro[indoline-3,2′-oxete]-3′-carbaldehyde]: the MIC is 300 µg/mL (≈ 1200 µM) in the experiment on Escherichia coli 10-1, 160 µg/mL (≈ 641 µM) in the experiment on Escherichia coli 10-2 and more than 600 µg/mL in experiment [1].
Taken in the same sequence, the figures for `CN1C(=O)[C@@]2(OC(c3ccccc3)=C2C(=O)c2ccccc2)c2cc(Br)ccc21` [Compound 5, (R)-3′-benzoyl-5-bromo-1-methyl-4′-phenylspiro[indoline-3,2′-oxet]-2-one] were 300 µg/mL (≈ 672 µM), 300 µg/mL (≈ 672 µM) and 160 µg/mL (≈ 359 µM).
For `CN1C(=O)[C@@]2(OC(c3ccccc3)=C2C(=O)c2ccccc2)c2cccc(Br)c21` [Compound 6, (R)-3′-benzoyl-7-bromo-1-methyl-4′-phenylspiro[indoline-3,2′-oxet]-2-one], in that order: more than 600 µg/mL, 300 µg/mL (≈ 672 µM) and 300 µg/mL (≈ 672 µM).
Taken in the same sequence, the figures for `CN1C(=O)[C@@]2(OC(c3ccccc3)=C2C(=O)c2ccccc2)c2cc(Cl)ccc21` [Compound 7, (R)-3′-benzoyl-5-chloro-1-methyl-4′-phenylspiro[indoline-3,2′-oxet]-2-one] were 160 µg/mL (≈ 398 µM), 300 µg/mL (≈ 747 µM) and 300 µg/mL (≈ 747 µM).
On to `CN1C(=O)[C@@]2(OC(c3ccccc3)=C2C(=O)c2ccccc2)c2cccc(Cl)c21` [Compound 8, (R)-3′-benzoyl-7-chloro-1-methyl-4′-phenylspiro[indoline-3,2′-oxet]-2-one], for which the results for the MIC (with Escherichia coli 10-1; in the experiment with Escherichia coli 10-2; in experiment [1]) were 300 µg/mL (≈ 747 µM), 300 µg/mL (≈ 747 µM) and 160 µg/mL (≈ 398 µM), respectively.
Consider `CCN1C(=O)[C@@]2(OC=C2C(=O)c2ccccc2)c2cc(Br)ccc21` [Compound 9, (R)-3′-benzoyl-5-bromo-1-ethylspiro[indoline-3,2′-oxet]-2-one], for which the MIC came to 300 µg/mL (≈ 781 µM) in the experiment with Escherichia coli 10-1, 160 µg/mL (≈ 416 µM) with Escherichia coli 10-2 and 300 µg/mL (≈ 781 µM) in experiment [1].
For the compound `CCCN1C(=O)[C@@]2(OC(c3ccccc3)=C2C=O)c2cccc(Br)c21` [Compound 10, (R)-7-bromo-2-oxo-4′-phenyl-1-propylspiro[indoline-3,2′-oxete]-3′-carbaldehyde], the MIC with Escherichia coli 10-1 was 160 µg/mL (≈ 402 µM); in the experiment on Escherichia coli 10-2, more than 600 µg/mL; in experiment [1], 300 µg/mL (≈ 753 µM).
For `CCCN1C(=O)[C@@]2(OC=C2C(=O)c2ccccc2)c2cc(Cl)ccc21` [Compound 11, (R)-3′-benzoyl-5-chloro-1-propylspiro[indoline-3,2′-oxet]-2-one], in that order: 160 µg/mL (≈ 452 µM), 160 µg/mL (≈ 452 µM) and more than 600 µg/mL.
In the case of `CCN1C(=O)[C@@]2(OC(c3ccccc3)=C2C=O)c2cccc(Cl)c21` [Compound 12, (R)-7-chloro-1-ethyl-2-oxo-4′-phenylspiro[indoline-3,2′-oxete]-3′-carbaldehyde], the figures for the MIC (with Escherichia coli 10-1; in the experiment with Escherichia coli 10-2; in experiment [1]) were 160 µg/mL (≈ 471 µM), 300 µg/mL (≈ 883 µM) and 300 µg/mL (≈ 883 µM), respectively.
On to `CCN1C(=O)[C@@]2(OC=C2C=O)c2cc(Br)ccc21` [Compound 13, (R)-5-bromo-1-ethyl-2-oxospiro[indoline-3,2′-oxete]-3′-carbaldehyde], for which the MIC in the experiment with Escherichia coli 10-1 stood at 300 µg/mL (≈ 974 µM); with Escherichia coli 10-2, 160 µg/mL (≈ 519 µM); in experiment [1], 160 µg/mL (≈ 519 µM).
For `O=CC1=CO[C@@]12C(=O)N(Cc1ccccc1)c1c(Cl)cccc12` [Compound 14], the MIC with Escherichia coli 10-1 came out at 160 µg/mL (≈ 491 µM); in the experiment with Escherichia coli 10-2 it was 160 µg/mL (≈ 491 µM); in experiment [1], 300 µg/mL (≈ 921 µM).
Take `O=C(C1=C(c2ccccc2)O[C@@]12C(=O)N(Cc1ccccc1)c1c(Br)cccc12)c1ccccc1` [Compound 15]: the results for the MIC (in the experiment on Escherichia coli 10-1; with Escherichia coli 10-2; in experiment [1]) were 160 µg/mL (≈ 306 µM), 300 µg/mL (≈ 574 µM) and 160 µg/mL (≈ 306 µM), respectively.
As for `CCCN1C(=O)[C@@]2(OC(c3ccccc3)=C2C(=O)c2ccccc2)c2cc(Cl)ccc21` [Compound 16, (R)-3′-benzoyl-5-chloro-4′-phenyl-1-propylspiro[indoline-3,2′-oxet]-2-one], the MIC stood at 300 µg/mL (≈ 698 µM) in the experiment on Escherichia coli 10-1, 160 µg/mL (≈ 372 µM) in the experiment on Escherichia coli 10-2 and 160 µg/mL (≈ 372 µM) in experiment [1].
Consider `O=C1Nc2ccccc2C1=O` [isatin], for which the MIC in the experiment on Escherichia coli 10-1 is 300 µg/mL (≈ 2040 µM); with Escherichia coli 10-2, 160 µg/mL (≈ 1090 µM); in experiment [1], more than 600 µg/mL.
